Results published in article PMC5564600 (Oncotarget, 2017).

What was measured:
Assay type in all cases: binding
PIK3C2B = molecular target: T1, PIK3C2B (Homo sapiens, UniProt O00750); assay: KINOMEscan, PIK3C2B; conditions: for remaining binding at 1 µM / remaining binding at 10 µM: kinase PIK3C2B; for remaining binding at 1 µM: read-out: % of control at 1 µM; for remaining binding at 10 µM: read-out: % of control at 10 µM
T1 construct: purchased Ambit Biosciences (scanMAXX KINOMEscan)

CLK2 = molecular target: T2, CLK2 (Homo sapiens, UniProt P49760); assay: KINOMEscan, CLK2; conditions: for remaining binding at 1 µM: read-out: % of control at 1 µM
T2 construct: purchased Ambit Biosciences (scanMAXX KINOMEscan)
T2 sequence (P49760 whole entry): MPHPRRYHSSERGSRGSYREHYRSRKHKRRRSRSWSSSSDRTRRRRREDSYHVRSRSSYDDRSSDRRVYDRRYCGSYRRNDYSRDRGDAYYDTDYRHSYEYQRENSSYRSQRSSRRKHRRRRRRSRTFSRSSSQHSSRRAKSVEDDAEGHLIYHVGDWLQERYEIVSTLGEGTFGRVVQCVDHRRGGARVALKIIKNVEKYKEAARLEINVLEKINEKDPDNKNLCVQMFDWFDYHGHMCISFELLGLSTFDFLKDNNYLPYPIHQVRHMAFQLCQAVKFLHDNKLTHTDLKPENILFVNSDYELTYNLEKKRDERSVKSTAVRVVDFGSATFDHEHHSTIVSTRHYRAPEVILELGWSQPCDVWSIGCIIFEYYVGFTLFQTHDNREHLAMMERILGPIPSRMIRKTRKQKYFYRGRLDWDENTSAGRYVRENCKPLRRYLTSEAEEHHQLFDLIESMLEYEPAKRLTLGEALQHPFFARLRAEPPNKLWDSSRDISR

MAP4K2 = molecular target: T3, MAP4K2 (Homo sapiens, UniProt Q12851); assay: KINOMEscan, MAP4K2; conditions: for remaining binding at 1 µM / remaining binding at 10 µM: kinase MAP4K2; for remaining binding at 1 µM: read-out: % of control at 1 µM; for remaining binding at 10 µM: read-out: % of control at 10 µM
T3 construct: purchased Ambit Biosciences (scanMAXX KINOMEscan)
T3 sequence (Q12851 1-820): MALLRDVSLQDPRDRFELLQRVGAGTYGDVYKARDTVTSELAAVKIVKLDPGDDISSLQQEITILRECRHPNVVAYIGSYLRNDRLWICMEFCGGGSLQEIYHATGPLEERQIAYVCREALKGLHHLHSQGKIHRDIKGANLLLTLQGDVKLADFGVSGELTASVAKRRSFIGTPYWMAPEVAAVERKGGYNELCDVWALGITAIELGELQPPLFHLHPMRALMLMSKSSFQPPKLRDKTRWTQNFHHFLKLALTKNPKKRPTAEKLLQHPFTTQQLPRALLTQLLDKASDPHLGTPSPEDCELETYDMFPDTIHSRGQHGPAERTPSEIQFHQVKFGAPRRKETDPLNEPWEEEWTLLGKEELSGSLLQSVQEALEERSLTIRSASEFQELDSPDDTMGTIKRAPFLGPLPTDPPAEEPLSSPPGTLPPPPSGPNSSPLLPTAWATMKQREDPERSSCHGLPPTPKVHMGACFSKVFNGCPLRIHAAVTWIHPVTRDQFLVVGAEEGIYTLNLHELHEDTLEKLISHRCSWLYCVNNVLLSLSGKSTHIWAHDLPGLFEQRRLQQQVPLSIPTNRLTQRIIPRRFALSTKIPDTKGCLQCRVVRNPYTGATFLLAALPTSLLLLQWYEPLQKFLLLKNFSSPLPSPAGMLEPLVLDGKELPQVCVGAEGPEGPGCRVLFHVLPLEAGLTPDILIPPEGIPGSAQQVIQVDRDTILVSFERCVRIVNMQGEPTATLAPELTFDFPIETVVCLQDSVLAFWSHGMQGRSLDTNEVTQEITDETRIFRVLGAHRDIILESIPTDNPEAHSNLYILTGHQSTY

ERBB3 = molecular target: T4, ERBB3 (Homo sapiens, UniProt P21860); assay: KINOMEscan, ERBB3; conditions: for remaining binding at 1 µM / remaining binding at 10 µM: ERBB3; for remaining binding at 1 µM: read-out: % of control at 1 µM; for remaining binding at 10 µM: read-out: % of control at 10 µM
T4 construct: purchased Ambit Biosciences (scanMAXX KINOMEscan)
T4 sequence (P21860 20-1342): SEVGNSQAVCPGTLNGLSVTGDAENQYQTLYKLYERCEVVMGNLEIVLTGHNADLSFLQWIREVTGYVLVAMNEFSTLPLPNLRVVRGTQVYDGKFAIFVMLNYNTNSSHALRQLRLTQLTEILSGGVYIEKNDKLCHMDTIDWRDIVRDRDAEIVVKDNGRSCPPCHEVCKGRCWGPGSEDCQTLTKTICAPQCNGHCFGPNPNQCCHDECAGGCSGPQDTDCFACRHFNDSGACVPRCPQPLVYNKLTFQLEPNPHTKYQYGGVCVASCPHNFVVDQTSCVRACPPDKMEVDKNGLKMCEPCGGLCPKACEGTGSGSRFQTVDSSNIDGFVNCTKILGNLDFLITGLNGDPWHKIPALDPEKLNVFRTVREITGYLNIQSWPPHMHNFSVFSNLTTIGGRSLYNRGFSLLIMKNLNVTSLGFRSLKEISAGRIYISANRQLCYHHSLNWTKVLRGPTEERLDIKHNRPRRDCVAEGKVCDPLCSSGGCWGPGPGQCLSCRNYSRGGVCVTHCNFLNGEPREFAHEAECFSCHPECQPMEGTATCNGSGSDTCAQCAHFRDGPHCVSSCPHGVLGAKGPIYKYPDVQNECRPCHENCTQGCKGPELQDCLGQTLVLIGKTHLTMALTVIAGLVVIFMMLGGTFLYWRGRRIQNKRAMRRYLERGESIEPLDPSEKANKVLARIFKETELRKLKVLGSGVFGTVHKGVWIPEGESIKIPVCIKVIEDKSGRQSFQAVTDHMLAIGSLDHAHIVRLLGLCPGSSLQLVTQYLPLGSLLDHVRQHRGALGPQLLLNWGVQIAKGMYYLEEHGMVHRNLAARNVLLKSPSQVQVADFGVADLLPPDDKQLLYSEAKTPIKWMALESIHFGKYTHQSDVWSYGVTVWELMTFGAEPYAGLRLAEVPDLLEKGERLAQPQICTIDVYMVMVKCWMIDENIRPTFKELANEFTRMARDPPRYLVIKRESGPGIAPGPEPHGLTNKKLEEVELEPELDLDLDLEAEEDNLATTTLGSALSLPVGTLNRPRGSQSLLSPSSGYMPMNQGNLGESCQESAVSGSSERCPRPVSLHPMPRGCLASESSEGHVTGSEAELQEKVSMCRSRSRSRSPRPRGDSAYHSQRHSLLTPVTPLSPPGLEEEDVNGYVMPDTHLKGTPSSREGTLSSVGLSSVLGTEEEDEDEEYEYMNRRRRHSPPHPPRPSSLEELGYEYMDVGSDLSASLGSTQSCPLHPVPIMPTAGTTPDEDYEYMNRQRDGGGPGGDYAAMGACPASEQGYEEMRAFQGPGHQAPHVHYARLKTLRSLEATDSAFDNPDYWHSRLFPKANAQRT

panel of 442 kinases [1] = molecular target: T5, panel of 442 kinases (Homo sapiens, UniProt Q9UHD2); assay: biochemical; conditions: kinase TBK1; for remaining activity at 1 µM: read-out: TBK1 (% of control at 1 µM)
T5 construct: purchased Ambit Biosciences (scanMAXX KINOMEscan)
T5 sequence (Q9UHD2 1-729): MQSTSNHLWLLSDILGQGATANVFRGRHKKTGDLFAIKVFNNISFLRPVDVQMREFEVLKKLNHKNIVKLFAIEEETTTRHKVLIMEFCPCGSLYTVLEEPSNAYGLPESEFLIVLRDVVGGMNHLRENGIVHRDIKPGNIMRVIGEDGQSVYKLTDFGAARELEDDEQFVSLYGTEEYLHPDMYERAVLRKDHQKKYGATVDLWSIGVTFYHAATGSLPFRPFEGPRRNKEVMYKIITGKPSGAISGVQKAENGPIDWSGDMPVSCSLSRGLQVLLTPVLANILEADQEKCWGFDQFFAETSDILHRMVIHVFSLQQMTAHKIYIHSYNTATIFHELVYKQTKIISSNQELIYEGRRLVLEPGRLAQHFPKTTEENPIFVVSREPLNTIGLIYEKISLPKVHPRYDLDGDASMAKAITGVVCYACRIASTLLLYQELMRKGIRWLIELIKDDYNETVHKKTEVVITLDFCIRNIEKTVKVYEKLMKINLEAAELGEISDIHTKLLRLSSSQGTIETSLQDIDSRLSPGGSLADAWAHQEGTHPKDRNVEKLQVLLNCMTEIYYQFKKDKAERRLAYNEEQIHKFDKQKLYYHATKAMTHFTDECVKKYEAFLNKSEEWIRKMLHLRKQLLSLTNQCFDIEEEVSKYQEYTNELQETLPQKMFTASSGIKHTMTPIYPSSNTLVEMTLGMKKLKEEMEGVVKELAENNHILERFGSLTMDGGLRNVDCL

panel of 442 kinases [2] = molecular target: T6, panel of 442 kinases (Homo sapiens, UniProt P50613); assay: biochemical; conditions: CDK7; for remaining activity at 1 µM: read-out: % of control at 1 µM
T6 construct: purchased Ambit Biosciences (scanMAXX KINOMEscan)
T6 sequence (P50613 whole entry): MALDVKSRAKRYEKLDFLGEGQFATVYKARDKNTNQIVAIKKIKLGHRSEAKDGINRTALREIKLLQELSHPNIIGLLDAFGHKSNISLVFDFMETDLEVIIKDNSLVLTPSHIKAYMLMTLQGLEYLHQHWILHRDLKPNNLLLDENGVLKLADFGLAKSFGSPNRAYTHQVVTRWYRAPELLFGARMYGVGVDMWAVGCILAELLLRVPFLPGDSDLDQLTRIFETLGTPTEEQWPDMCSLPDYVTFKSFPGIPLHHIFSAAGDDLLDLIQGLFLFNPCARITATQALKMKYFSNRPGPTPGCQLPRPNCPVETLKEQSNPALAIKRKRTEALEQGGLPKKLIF

panel of 442 kinases [3] = molecular target: T7, panel of 442 kinases (Homo sapiens, UniProt Q86V86); assay: biochemical; conditions: kinase PIM3; for remaining activity at 1 µM: read-out: % of control at 1 µM
T7 construct: purchased Ambit Biosciences (scanMAXX KINOMEscan)

[4] = 10 µM, read-out: % of control at 10 µM

T1 sequence (O00750 whole entry): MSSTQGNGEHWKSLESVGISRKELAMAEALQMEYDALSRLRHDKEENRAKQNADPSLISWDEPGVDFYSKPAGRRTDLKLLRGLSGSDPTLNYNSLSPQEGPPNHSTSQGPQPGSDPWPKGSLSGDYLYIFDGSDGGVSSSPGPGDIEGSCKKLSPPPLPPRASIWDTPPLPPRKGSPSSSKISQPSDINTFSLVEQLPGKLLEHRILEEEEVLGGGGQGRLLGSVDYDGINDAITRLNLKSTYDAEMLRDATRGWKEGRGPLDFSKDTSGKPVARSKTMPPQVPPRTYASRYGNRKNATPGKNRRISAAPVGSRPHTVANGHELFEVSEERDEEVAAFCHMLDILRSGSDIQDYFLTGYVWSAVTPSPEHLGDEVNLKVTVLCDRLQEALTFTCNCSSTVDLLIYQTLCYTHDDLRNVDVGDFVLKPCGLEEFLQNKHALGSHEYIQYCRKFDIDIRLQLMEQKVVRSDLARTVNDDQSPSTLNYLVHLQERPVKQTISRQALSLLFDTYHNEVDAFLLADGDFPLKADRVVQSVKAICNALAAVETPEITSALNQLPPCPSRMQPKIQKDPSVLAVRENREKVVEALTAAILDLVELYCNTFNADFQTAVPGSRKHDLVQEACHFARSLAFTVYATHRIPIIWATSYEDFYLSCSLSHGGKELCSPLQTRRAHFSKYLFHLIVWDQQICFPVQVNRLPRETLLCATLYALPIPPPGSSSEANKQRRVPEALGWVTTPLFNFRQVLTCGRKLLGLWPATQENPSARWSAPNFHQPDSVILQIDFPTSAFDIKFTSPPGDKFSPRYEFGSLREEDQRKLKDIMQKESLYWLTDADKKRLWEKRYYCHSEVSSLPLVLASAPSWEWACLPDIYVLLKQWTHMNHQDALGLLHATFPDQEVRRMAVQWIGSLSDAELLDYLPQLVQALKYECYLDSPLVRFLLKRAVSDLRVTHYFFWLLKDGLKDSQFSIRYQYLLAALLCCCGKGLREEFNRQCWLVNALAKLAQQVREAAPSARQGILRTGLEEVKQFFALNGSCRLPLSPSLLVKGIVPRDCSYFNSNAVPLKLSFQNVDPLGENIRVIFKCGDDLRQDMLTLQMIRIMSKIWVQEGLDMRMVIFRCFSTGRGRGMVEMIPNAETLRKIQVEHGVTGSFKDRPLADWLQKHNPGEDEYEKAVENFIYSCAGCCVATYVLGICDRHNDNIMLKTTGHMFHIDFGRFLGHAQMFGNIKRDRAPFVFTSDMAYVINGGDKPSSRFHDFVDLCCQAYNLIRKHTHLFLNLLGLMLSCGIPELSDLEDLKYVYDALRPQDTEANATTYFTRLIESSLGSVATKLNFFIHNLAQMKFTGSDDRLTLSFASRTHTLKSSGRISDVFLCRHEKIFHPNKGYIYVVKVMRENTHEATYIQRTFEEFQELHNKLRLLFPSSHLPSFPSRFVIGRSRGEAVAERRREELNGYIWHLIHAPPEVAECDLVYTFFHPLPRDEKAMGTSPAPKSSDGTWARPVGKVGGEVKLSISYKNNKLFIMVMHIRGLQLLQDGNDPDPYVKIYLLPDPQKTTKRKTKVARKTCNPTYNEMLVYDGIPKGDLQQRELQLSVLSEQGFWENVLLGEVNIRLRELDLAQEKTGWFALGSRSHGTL

Nc1cc(C(F)(F)F)c(-c2cc(N3CCOCC3)nc(N3CCOCC3)n2)cn1 [Buparlisib]
remaining binding at 1 µM (PIK3C2B): 97% | remaining binding at 10 µM (PIK3C2B): 100% | binding to CLK2 (CLK2; 10 μM): > 80% | remaining binding at 1 µM (CLK2; CLK2): 29% | remaining binding at 10 µM (CLK2; CLK2, 10 µM, read-out: % of control at 10 µM): 18% | remaining binding at 1 µM (MAP4K2): 82% | remaining binding at 10 µM (MAP4K2): 100% | remaining binding at 1 µM (ERBB3): 100% | remaining binding at 10 µM (ERBB3): 90% | remaining activity at 1 µM (panel of 442 kinases [1]): 99% | remaining activity at 10 µM (panel of 442 kinases [1]; 10 µM, read-out: TBK1 (% of control at 10 µM)): 100% | remaining activity at 1 µM (panel of 442 kinases [2]): 93% | remaining activity at 10 µM (panel of 442 kinases [2]; [4]): 100% | remaining activity at 1 µM (panel of 442 kinases [3]): 100% | remaining activity at 10 µM (panel of 442 kinases [3]; [4]): 93%

Cn1c(=O)n(-c2ccc(C(C)(C)C#N)cc2)c2c3cc(-c4cnc5ccccc5c4)ccc3ncc21 [Dactolisib, 2-methyl-2-[4-(3-methyl-2-oxo-8-quinolin-3-yl-2,3-dihydroimidazo[4,5-c]quinolin-1-yl)-phenyl] propionitrile]
inhibition at 1 µM (PIK3C2B; 1 μM): > 80% | remaining binding at 1 µM (PIK3C2B): 9.9% | remaining binding at 1 µM (CLK2; CLK2): 81% | inhibition at 1 µM (MAP4K2; 1 μM): > 80% | remaining binding at 1 µM (MAP4K2): 0.25% | inhibition at 1 µM (ERBB3; 1 μM): > 80% | remaining binding at 1 µM (ERBB3): 9.2% | remaining activity at 1 µM (panel of 442 kinases [1]): 93% | remaining activity at 1 µM (panel of 442 kinases [2]): 57% | remaining activity at 1 µM (panel of 442 kinases [3]): 100%

COc1ncc(-c2ccc3nccc(-c4ccnnc4)c3c2)cc1NS(=O)(=O)c1ccc(F)cc1F [Omipalisib]
off-target binding to PIK3C2B (PIK3C2B; 1 μM): non-selective | remaining binding at 1 µM (PIK3C2B): 0% | remaining binding at 1 µM (CLK2; CLK2): 92% | remaining binding at 1 µM (MAP4K2): 100% | remaining binding at 1 µM (ERBB3): 95% | remaining activity at 1 µM (panel of 442 kinases [1]): 100% | remaining activity at 1 µM (panel of 442 kinases [2]): 100% | remaining activity at 1 µM (panel of 442 kinases [3]): 86%

CS(=O)(=O)N1CCN(Cc2cc3nc(-c4cccc5[nH]ncc45)nc(N4CCOCC4)c3s2)CC1 [Pictilisib, 2-(1H-indazol-4-yl)-6-(4-methanesulfonyl-piperazin-1-ylmethyl)-4-morpholin-4-yl-t hieno[3,2-d]pyrimidine]
off-target activity against PIK3C2B (PIK3C2B; 10 μM): active | remaining binding at 1 µM (PIK3C2B): 54% | remaining binding at 10 µM (PIK3C2B): 0.45% | remaining binding at 1 µM (MAP4K2): 100% | remaining binding at 10 µM (MAP4K2): 61% | remaining binding at 1 µM (ERBB3): 100% | remaining binding at 10 µM (ERBB3): 96%

FC(F)c1nc2ccccc2n1-c1nc(N2CCOCC2)nc(N2CCOCC2)n1 [ZSTK474, 2-(difluoromethyl)-1-[4,6-di(4-morpholinyl)-1,3,5-triazin-2-yl]-1H-benzimidazole]
off-target binding to PIK3C2B (PIK3C2B; 1 μM): high binding affinity | remaining binding at 1 µM (PIK3C2B): 0.85% | remaining binding at 1 µM (CLK2; CLK2): 100% | remaining binding at 1 µM (MAP4K2): 85% | remaining binding at 1 µM (ERBB3): 24% | remaining activity at 1 µM (panel of 442 kinases [1]): 100% | remaining activity at 1 µM (panel of 442 kinases [2]): 68% | remaining activity at 1 µM (panel of 442 kinases [3]): 95%
